Patent US12029716B2, “Derivatives of korormicin useful as antibiotics” (Viotika Life Sciences Inc., priority 2015, dated 2024)
In brackets after ≈: the same amount, converted by molar mass. Entries after “also recorded” stand apart in the source; their conditions may differ. Where two headings read alike, the source gives them in different places.

Experiments:
[1] = tested on: HeLa cells infected with C. trachomatis; experiment: Intracellular acidification of HeLa cells infected with C. trachomatis; type: cell-based, human
Description: The mechanism of action of PEG-2 was also investigated by monitoring intracellular acidification of infected cells treated with PEG-2. If PEG-2 is working through the inhibition of Na^+-NQR and a sodium motive force, then it would be expected to have an effect on intracellular Na^+ and H^+ concentrations within infected cells. HeLa cells were infected with C. trachomatis and intracellular acidification was monitored with fluorescent indicator dyes.

Chlamydia trachomatis = experiment: C. trachomatis infection of HeLa cells (chlamydial inclusions, immunocytochemistry); type: cell-based; settings: for MCC2, Minimal Chlamydicidal Concentration: after 2 passages with treatment
Method: Chlamydia trachomatis (C. trachomatis) propagation and treatment were carried out as follows. C. trachomatis was propagated in HeLa cells. The titer of C. trachomatis was determined in cyclohexamide-treated HeLa cells, and concentrations used were expressed as inclusion forming units (IFU) per mL.
Assessment of the level of infection was determined as follows. HeLa cells were seeded on glass coverslips in 24-well plates at 3×10^4 cells/well and inoculated with C. trachomatis and then treated with antibiotic (or other compounds of interest). After 48 hours, the infected cells were fixed with 100% methanol and then incubated with anti-Chlamydia monoclonal antibody. Inclusion bodies were visualized by staining with FITC-conjugated secondary antibody and DAPI as counterstaining. The samples were examined by a fluorescence microscopy. Number of inclusions was calculated per 100 cells.
Assessment of antichlamydial activity of Korormicin (Scheme shown in FIG. 1) and PEG-2 (Scheme shown in FIG. 2) were performed as follows. Cells were infected with C. trachomatis and treated with different concentrations of antibiotic of choice. After 48 h of C. trachomatis was collected (P1) and used to infect fresh cells. Subsequent collections of C. trachomatis were used to obtain P2, P3, P4 and P5 stocks of C. trachomatis. Dilution of C. trachomatis used to infect cells after treatment with PEG-2 had to be minimized in order to visualize inclusions. Last passage collection of C. trachomatis (P5) of Korormicin treatment and all collected of passages of C. trachomatis treated with PEG-2 were used to establish infectivity of treated Chlamydia (Scheme shown in FIG. 3).
For MIC50 (Minimal Concentration of the antibiotic that inhibits formation of chlamydial inclusions on 50%) determination HeLa cells were grown in 24-well or 96 well plates overnight prior to chlamydial inoculation. Elementary bodies were applied to the cells in small volume of SPG (0.22 M sucrose, 8.6 mM Na2HPO4, 3.8 mM KH2PO4, 5 mM glutamic acid, 0.2 μm-filtered, pH 7.4) and after 2 hours of incubation unattached elementary bodies were removed and infected cells were treated with different concentration of antibiotics in Dulbecco's modified Eagle's medium (DMEM, Invitrogen) with 5% fetal bovine serum (FBS, Invitrogen) in the presence of cycloheximide (1.0 μg/ml). After 42 h inclusions were visualized by immunocytochemistry.
To determent chlamydicidal effect of Korormicin (Scheme 1) and PEG-2 (Scheme 2) Hela cells were infected with C. trachomatis and treated with different concentrations of antibiotics. After 48 h of C. trachomatis was collected (P1) and used to infect fresh cells. Subsequent collections of C. trachomatis were used to obtain P2, P3, P4 and P5 stocks of C. trachomatis. Dilution of C. trachomatis used to infect cells after treatment with PEG-2 had to be minimized in order to visualize inclusions. (See Scheme 2 below). Last passage collection of C. trachomatis (P5) of Korormicin treatment and all collected of passages of C. trachomatis treated with PEG-2 were used to establish infectivity of treated C. trachomatis. Minimal chlamydicidal concentration (MCC2) for Korormicin, PEG-2 and PEG-2S was calculated after 2 passages of infection with treatment and reflect inhibition of infection for more than 90%. In all experiments inclusions were visualized by immunocytochemistry.
Cells were seeded on glass coverslips in 24-well plates (2-4×10^4 cells/well) or on glass-bottom 96 well plates (10^4 cells/well), and after overnight inoculated with C. trachomatis. After 42 hours, the infected cells were fixed with 90% acetone (or 100% methanol in case of 96 well plates) and then incubated with anti-Chlamydia antibody (Thermo Fisher Scientific). Alexa Fluor 488-conjugated anti-rabbit IgG (Molecular Probes) was used as secondary antibody. DAPI staining solution (300 nM) was added to the coverslips to identify nuclei. […]

HEK293 cells = experiment: Cell toxicity assay, HEK293 cells; type: cell-based, human; settings: HEK293, concentrations of up to 50 μM
Method: (§1) Cell Toxicity Assay was performed as follows. HeLa, HEK293 and primary VSM cells were seeded at 5×10^3 cells/well in 96-well plates and incubated with Korormicin, PEG-2 or homoserine lactones in DMEM containing 1% fetal bovine serum (FBS; Invitrogen Corp.). After 48 hours, the number of living cells was determined by a colorimetric enzyme assay, based on a cytoplasmic enzyme activity present in viable cells.

HeLa cell line = experiment: Cell toxicity assay, HeLa cells; type: cell-based, human; settings: HeLa, concentrations of up to 50 μM
Method: as §1

[2] = tested on: primary Vascular Smooth Muscle cells; experiment: Cell toxicity / proliferation assay, primary vascular smooth muscle cells; type: cell-based, human
Method: as §1
Cells were seeded at 5×10^3 cells/well in 96-well plates and incubated with C. trachomatis in DMEM containing 1% fetal bovine serum (FBS; Invitrogen Corp.). After 48 hours, the number of living cells was determined by a colorimetric enzyme assay (CellTiter 96 Cell Proliferation Assay; Promega Corporation, Madison, WI) based on a cytoplasmic enzyme activity present in viable cells. (Cory et al. Use of an aqueous soluble tetrazolium/formazan assay for cell growth assays in culture. Cancer Commun. 1991; 3:207-212). The absorbance of a formazan product in tissue culture media was measured at 500 nm using a microplate reader.

## CCCCCCC/C=C/C=C\[C@H](O)CC(=O)NC1=C[C@](C)(CC)OC1=O [PEG-2]
[1]
  delay of the initial C. trachomatis-induced acidification: at least 2 hours
  effect on the following acidification: diminishes the following acidification
Chlamydia trachomatis
  efficacy against C. trachomatis infection (in words): effective
  MCC2, Minimal Chlamydicidal Concentration: 5.45 µg/mL
Chlamydia trachomatis; 1st treatment, 15 μM
  decrease of infectivity (number of chlamydial inclusions in the next passage): ~5 fold
Chlamydia trachomatis; 5 consecutive treatments, 15 μM
  number of inclusions, of control: 0.01%
Chlamydia trachomatis; inhibition of infection for more than 90%
  MCC2, Minimal Chlamydicidal Concentration: 15 µM
Chlamydia trachomatis; after 5 consecutive treatments, 15 μM
  number of detectable inclusions lower: 10,000 times
Chlamydia trachomatis; first treatment
  MIC501, Minimal Inhibitory Concentration after the treatment: 3.63 µg/mL (≈ 9.99 µM)
Chlamydia trachomatis; fluorescence microscopy
  size of chlamydial inclusions: noticeably smaller
Chlamydia trachomatis; read-out: MIC501, Minimal Inhibitory Concentration after the treatment, first treatment, 50% inhibition of inclusion formation
  IC50: 10 µM
Chlamydia trachomatis; read-out: MIC502, Minimal Inhibitory Concentration after the second treatment, second treatment
  IC50: 4 µM
Chlamydia trachomatis; second treatment
  MIC502, Minimal Inhibitory Concentration after the second treatment: 1.45 µg/mL (≈ 3.99 µM)
HEK293 cells
  toxic effects: no toxic effects
HeLa cell line
  toxic effects: no toxic effects
[2]; primary Vascular Smooth Muscle cells
  toxicity to primary cells (in words): low cytotoxicity; also recorded: non-toxic
[2]; primary Vascular Smooth Muscle cells, concentrations of up to 50 μM
  toxic effects: no toxic effects
[2]; up to 20 μM
  toxic effects on primary cell cultures (VSMC): no toxic effects
